From patent US20230116602A1, “MCL1 INHIBITORS AND USES THEREOF” (California Institute of Technology, priority 2019, published 2023)

Key:
[1] = system: drug-sensitive cell lines of Table 3; test: Cell line growth retardation assay, sensitive cohort; type: cell-based, Human; conditions: for IC50: Homo sapiens, 144 h, arithmetic mean of IC50s over the sensitive cohort of Table 3, 6 days growth, read-out: AvgSen IC50; for Fold Diff: average IC50 of resistant cohort divided by average IC50 of sensitive cohort
Protocol: (§1) Cells were seeded at densities of 1,000-5,000 cells per well in 48-well tissue culture plates. After a 24 h rest period, cells were treated with compound at 10 μM, 1 μM, […], 0.08 μM, 0.016 μM, and 0.0032 μM. A group of cells were treated with the vehicle in which the compound was prepared and served as a control. Prior to treatment, cells were counted and this count was used as a baseline for the calculation of growth inhibition. The cells were grown in the presence of compounds for 6 days and were counted on day 6. All cell counting was performed using a Synentec Cellavista plate imager. Growth inhibition was calculated as a ratio of cell population doublings in the presence of compound versus the absence of compound. […] IC50 values for each compound were calculated by fitting curves to data points from each dose-response assay using the Proc NLIN function in SAS for Windows version 9.2 (SAS Institute, Inc.).
(§2) Human cancer cell lines were grouped as “sensitive” or “resistant” to MCL1 inhibition based on whether their growth was retarded by AMG-176 (i.e., (1′S,11R,12S,14E,16S,16aR,18aR)-6′-Chloro-3′,4′,12,13,16,16a,17,18,18a,19-decahydro-16-methoxy-11,12-dimethyl-,Spiro[5,7-etheno-1H,11H-cyclobut[i][1,4]oxazepino[3,4-f][1,2,7]thiadiazacyclohexadecine-2(3H),1′(2′H)-naphthalen]-8(9H)-one 10,10-dioxide) or MIK665 (i.e., (R)-2-((5-(3-chloro-2-methyl-4-(2-(4-methylpiperazin-1-yl)ethoxy)phenyl)-6-(4-fluorophenyl)thieno[2,3-d]pyrimidin-4-yl)oxy)-3-(2-((2-(2-methoxyphenyl)pyrimidin-4-yl)methoxy)phenyl)propanoic acid) (data not shown; see Table 3). These sensitive and resistant cohorts were interrogated for response to each compound, and IC50S were calculated for each cell line using the same technique described above. Average IC50S for the sensitive (“AvgSen IC50”) and resistant (“AvgRes IC50”) cohorts were calculated as arithmetic means of the group, and fold differences (“Fold Diff”) between the resistant and sensitive cohorts were calculated by diving the average IC50 for the resistant cohort by the average IC50 for the sensitive cohort. “A” represents an IC50 of 1 μM or less, “B” represents an IC50 of greater than 1 μM to 5 μM, “C” represents an IC50 of greater than 5 μM, “+” represents a fold difference of 10 or more, and “−” represents a fold difference less than 10.

[2] = system: drug-resistant cell lines of Table 3; test: Cell line growth retardation assay, resistant cohort; type: cell-based, Human; conditions: Homo sapiens, 144 h; arithmetic mean of IC50s over the resistant cohort of Table 3, 6 days growth; read-out: AvgRes IC50
Protocol: as §1, §2

MCL1 = MCL1 (Homo sapiens, UniProt Q07820); test: MCL1 affinity assay (competition binding, qPCR readout); conditions: recombinant MCL1, 11-point 3-fold dilution series
Protocol: Recombinant MCL1, BCL2 and BCXL proteins were prepared in either an E. coli host derived from the BL21 strain or in HEK-293 cells. The recombinant proteins were subsequently tagged with DNA for qPCR detection. Streptavidin-coated magnetic beads were treated for 30 minutes at room temperature with the respective biotinylated peptide ligands for each recombinant protein to generate affinity resins for the assays. The liganded beads were blocked with excess biotin and washed with blocking buffer (SeaBlock (Pierce), 1% BSA, 0.05% Tween 20, 1 mM DTT) to remove unbound ligand and to reduce nonspecific binding. Binding reactions were assembled by combining recombinant protein, liganded affinity beads, and test compounds in 1× binding buffer (20% SeaBlock, 0.17×PBS, 0.05% Tween 20, 6 mM DTT). Test compounds were prepared as 111X stocks in 100% DMSO. The compounds were then diluted directly into the assays such that the final concentration of DMSO was 0.9%. The assay plates were incubated at room temperature with shaking for 1 hour and the affinity beads were washed with wash buffer (1×PBS, 0.05% Tween 20). The beads were then re-suspended in elution buffer (1×PBS, 0.05% Tween 20, 0.5 μM non-biotinylated affinity ligand) and incubated at room temperature with shaking for 30 minutes. The recombinant protein concentration in the eluates was measured by qPCR. Kds were determined using an 11-point 3-fold compound dilution series with three DMSO control points.

Chain of MCL1 (Q07820 whole entry): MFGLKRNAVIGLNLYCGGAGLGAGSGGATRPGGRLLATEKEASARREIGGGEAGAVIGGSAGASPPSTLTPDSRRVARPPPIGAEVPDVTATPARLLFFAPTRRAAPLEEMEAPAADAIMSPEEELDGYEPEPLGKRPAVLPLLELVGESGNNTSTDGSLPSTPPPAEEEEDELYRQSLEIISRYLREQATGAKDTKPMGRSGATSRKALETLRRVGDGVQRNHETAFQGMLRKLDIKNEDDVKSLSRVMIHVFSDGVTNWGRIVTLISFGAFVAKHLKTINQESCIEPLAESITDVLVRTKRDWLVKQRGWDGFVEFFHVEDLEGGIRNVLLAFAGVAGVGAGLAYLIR

SMILES | Kd (MCL1) [nM] | IC50 [1] [nM] | Fold Diff [1] | IC50 [2] [nM]
COc1cccc(-c2ncc3snc(O[C@H](Cc4ccccc4OCc4ccnc(N5CCC(OC(F)F)CC5)n4)C(=O)O)c3c2-c2ccc(OCCN3CCN(C)CC3)c(Cl)c2C)c1 (atropisomer, axis not shown) [Compound 63] | 501 to 1500 | 1000 to 5000 | − (“−” represents a fold difference less than 10) | > 5000
COc1ccccc1-c1nccc(COc2ccccc2C[C@@H](Oc2nsc3cnc(C4CCC4)c(-c4ccc(OC)c(Cl)c4C)c23)C(=O)O)n1 (atropisomer, axis not shown) [Compound 107] | ≤ 100 | > 5000 | − (“−” represents a fold difference less than 10) | > 5000
CC(=O)N1CCN(c2ccc(-c3nccc(COc4ccccc4C[C@@H](Oc4nsc5cnc(C6CCC6)c(-c6ccc(OCCN7CCN(C)CC7)c(Cl)c6C)c45)C(=O)O)n3)cc2)CC1 (atropisomer, axis not shown) [Compound 119] | ≤ 100 | ≤ 1000 | + (“+” represents a fold difference of 10 or more) | > 5000
COc1ccccc1-c1nccc(COc2ccccc2C[C@@H](Oc2nsc3cnc(-c4cnc(C)o4)c(-c4ccc(OCCN5CCN(C)CC5)c(Cl)c4C)c23)C(=O)O)n1 (atropisomer, axis not shown) [Compound 77] | ≤ 100 | 1000 to 5000 | − (“−” represents a fold difference less than 10) | > 5000
CCOc1cc(-c2ncc3snc(O[C@H](Cc4ccccc4OCc4ccnc(-c5ccccc5OC)n4)C(=O)O)c3c2-c2ccc(OCCN3CCN(C)CC3)c(Cl)c2C)ccn1 (atropisomer, axis not shown) [Compound 32] | ≤ 100 | ≤ 1000 | + (“+” represents a fold difference of 10 or more) | > 5000
Cc1c(-c2c(C3CCC3)ncc3snc(O[C@H](Cc4ccccc4OCc4ccnc(C5CCC(F)(F)CC5)n4)C(=O)O)c23)ccc(OCCN2CCN(C)CC2)c1Cl (atropisomer, axis not shown) [Compound 110] | ≤ 100 | ≤ 1000 | + (“+” represents a fold difference of 10 or more) | > 5000

Now from value to molecule, other results behind:

Kd (MCL1) [nM] | SMILES | IC50 [1] [nM] | Fold Diff [1] | IC50 [2] [nM]
> 1500 | Cc1c(-c2c(N3CC4(COC4)C3)ncc3snc(O[C@H](Cc4ccccc4OCc4ccnn4CC(F)(F)F)C(=O)O)c23)ccc(OCCN2CCN(C)CC2)c1Cl (atropisomer, axis not shown) [Compound 91] | > 5000 | − (“−” represents a fold difference less than 10) | > 5000
≤ 100 | COc1cccc(-c2ncc3snc(O[C@H](Cc4ccccc4OCc4ccnc(-c5ccccc5S(C)(=O)=O)n4)C(=O)O)c3c2-c2ccc(OCCN3CCN(C)CC3)c(Cl)c2C)c1 (atropisomer, axis not shown) [Compound 68] | 1000 to 5000 | − (“−” represents a fold difference less than 10) | > 5000
101 to 500 | COc1cccc(-c2ncc3snc(O[C@H](Cc4ccccc4OCc4ccnc(OCCCC(F)(F)F)n4)C(=O)O)c3c2-c2ccc(OCCN3CCN(C)CC3)c(Cl)c2C)c1 [Compound 59] | 1000 to 5000 | − (“−” represents a fold difference less than 10) | > 5000
501 to 1500 | COc1ccccc1-c1nccc(COc2ccccc2C[C@@H](Oc2nsc3cnc(-c4cnn(CC(C)C)c4)c(-c4ccc(OCCN5CCN(C)CC5)c(Cl)c4C)c23)C(=O)O)n1 (atropisomer, axis not shown) [Compound 79] | ≤ 1000 | − (“−” represents a fold difference less than 10) | 1000 to 5000
≤ 100 | COc1ccc(F)cc1-c1nccc(COc2ccccc2C[C@@H](Oc2nsc3cnc(C4CCC4)c(-c4ccc(OCCN5CCN(C)CC5)c(Cl)c4C)c23)C(=O)O)n1 (atropisomer, axis not shown) [Compound 73] | ≤ 1000 | + (“+” represents a fold difference of 10 or more) | > 5000
